Data set [1] deals with ES2 cells. Briefly: MTS IC50 dosage calculation with BMS-833923. Format: cell-based. Particulars: Homo sapiens, ES-2; ES2 monolayer, MTS up to 72 hrs. As to the method:
(§1) Ovarian cancer cells were seeded at a density of 4,000 cells/well in 96 well plates. The following day, fresh medium was added to each well and they were treated with BMS-833923 at a dose-escalation at the following doses 0, 0.1, 0.25, 0.5, 1, 2, 5, 10, and 20 μM. These cells were kept at 37° C. in a humidified 5% CO2 atmosphere. Every 24 hours, 20 μl/well of MTS reagent were added in 96 well plates and stored in 37° C. incubator for at least 3 hours followed by absorbance reading at 490 nm. The assay was carried out up to 72 hrs to obtain the IC50 concentrations of each agent.
(§2) IC50 dosage determinations were performed as described above. […] BMS-833923 IC50 doses were used for all related experiments for specific ovarian cancer cell lines.

Data set [2] concerns OV90 cells. Put plainly: MTS IC50 dosage calculation with BMS-833923. Particulars: Homo sapiens, OV-90; OV90 monolayer, MTS up to 72 hrs. It is filed as cell-based. How it is done:
as §1, §2

The test system of data set [3] is SKOV3 cells. Briefly: MTS IC50 dosage calculation with BMS-833923. It is filed as cell-based. Particulars: Homo sapiens, SK-OV-3; SKOV3 monolayer, MTS up to 72 hrs. How it is done: as §1, §2
Data set [4] has as its system TOV112D cells. Briefly: MTS IC50 dosage calculation with BMS-833923. Particulars: Homo sapiens; TOV112D monolayer, MTS up to 72 hrs. It is filed as cell-based. How it is done:
as §1, §2

In data set [5] the test system is OV90 OCSC (CD44+/CD24-). Put plainly: Matrigel invasion assay of CD44+/CD24- ovarian cancer stem cells. It is filed as cell-based. Particulars: 2.5 μM, 24 hours. How it is done: (§3) Fluorescence-activated cell sorting (FACS) was performed in order to sort into 2 distinct phenotypes: 1) ovarian cancer stem cell phenotype (OCSC=CD44+/CD24−) and 2) non-ovarian cancer stem cells (non-OCSC=all other phenotypes). Each ovarian cancer phenotype was evaluated for invasion properties using the Matrigel invasion assay for the SKOV3 and OV90 cell lines. Matrigel™-coated chamber (BD Pharmingen) were rehydrated for 2 hours in humidified tissue culture incubator at 37° C., 5% CO2. After rehydration, the medium was carefully removed without disturbing the layer of Matrigel Matrix on the membrane. The cell suspension was prepared in serum-free medium containing 10^5 cells/mL. The lower chambers of the 24-well plate were filled with 750 μL serum-free medium containing 10 μg/mL fibronectin as a chemotactic factor. […] The cells were then fixed, stained and counted. Numbers of invaded cells at least 10 consecutive fields were enumerated and their average was calculated. Data are expressed as the number of migrating cells per field. Three groups were evaluated: 1) non-OCSC; 2) OCSC; 3) OCSC plus BMS833923 treatment.
(§4) One aggressive property of cancer includes the ability to invade tissues locally. Therefore, the ability of Ovarian Cancer Stem Cells (OCSC) with CD44+/CD24− phenotype to invade via Matrigel invasion assay was evaluated. […]

Data set [6] has as its system SKOV3 OCSC (CD44+/CD24-). The description is as above. It is filed as cell-based. Particulars: 2.5 μM, 24 hours. How it is done:
as §3, §4

The subject of data set [7] is A2780/CP70 cells. Briefly: Carboplatin IC50 with and without BMS-833923 in platinum resistant cell line. The following applies: A2780/CP70, addition of BMS-833923 at 5 μM. It is filed as cell-based. As to the method:
Considering the synergy described above and that the Hedgehog pathway is associated with cancer stem cell properties. In the effect of BMS-833923 plus carboplatin in two isogenic ovarian cancer cell lines specifically designed to evaluate platinum resistance mechanisms: A2780 (platinum sensitive) & A2780/CP70 (platinum resistant). Each cell line was evaluated to determine the IC50 dose of carboplatin to ensure a discernable difference in platinum treatment could be determined (FIG. 11A). The A2780/CP70 cell line required a 4-fold increase in carboplatin to reach IC50 (A2780/CP70=400 μM; A2780=100 μM). […] (FIG. 11B and FIG. 11C).

Data set [8] concerns A2780 xenografts. Briefly: Xenograft tumor growth, carboplatin-sensitive model. It is filed as in vivo. The following applies: SCID mice; BMS-833923 100 mg/kg i.p. daily, Carboplatin 40 mg/kg i.p. twice a week, two weeks. As to the method:
(§5) Female SCID mice 6-8 weeks old were inoculated i.p. with 5×10^6 A2780 or A2780/CP70 cells suspended in 200 μL PBS (PH 7.4). Seven days later when the tumor reached a size of greater than 150 mm^3, the mice were randomly divided into 4 groups (8 mice per group) as follows: (1) PBS-treated control; (2) BMS-833923 alone (100 mg/kg, i.p. daily, two weeks); (3) Carboplatin alone (40 mg/kg, i.p. twice a week, two weeks); (4) Combination of BMS-833923 and Carboplatin treatment. Mice were weighed and tumor diameters were measured with calipers every 2-3 days for 20 days. The tumor volumes (mm^3) were calculated as (W^2×L)/2, where W and L are the minor and major diameters (in millimeters), respectively.
(§6) Xenograft experiments were performed as described above. Carboplatin was dosed days 7, 11, 14, 18; BMS-833923 was dosed days 8 through 20. The experiment was terminated due to excessive tumor size in vehicle and BMS-833923 treatment groups.

In data set [9] the test system is CP2780 xenografts. Put plainly: Xenograft tumor growth, carboplatin-resistant model. Particulars: SCID mice; BMS-833923 100 mg/kg i.p. daily, Carboplatin 40 mg/kg i.p. twice a week, two weeks. It is filed as in vivo. How it is done: as §5, §6
The CP2780 was derived from the A2780 Ovarian tumor xenograft model by selection for resistance to cisplatin. The CP2780 growth appeared to be more robust than observed for parental A2780 model (FIG. 12B). Average tumor volume doubling time for CP2780 was estimated at 2 days. Doubling time for parental A2780 tumor model was estimated at 3 days. […]

Data set [10] is described as follows: MTD for combination therapy. It is filed as in vivo. Particulars: in vivo; BMS-833923 + carboplatin given together; previously demonstrated. The text has this: Treatment with BMS-833923 appeared to have little effect on the growth of A2780 xenografts in vivo.

Results on one molecule are retold here after US20140309184A1, “METHODS AND COMPOSITIONS FOR THE TREATMENT OF OVARIAN CANCER” (UNIVERSITY OF SOUTH ALABAMA, priority 2011, published 2014).

The structures appear in SMILES notation.

As to `CNCc1ccc(C)c(NC(=O)c2ccc(Nc3nc(-c4ccccc4)c4ccccc4n3)cc2)c1` [BMS-833923, N-{2-methyl-5-[(methylamino)methyl]phenyl}-4-[(4-phenylquinazolin-2-yl)amino]benzamide], the IC50 was 4 µM in [1], 4 µM in data set [2], 7.5 µM in data set [3] and 5 µM in [4]. Further, the “invasive properties of OCSC (number of cells invaded)” value in data set [5] and in data set [6] was “lower than non-OCSCs” in each case. Further, in data set [7], the “reduction of platinum needed to achieve the same cell death” value is 10 fold. The “effect on growth of A2780 xenografts in vivo” value in data set [8] is reported as “little effect”. The “effect on growth of CP2780 (A2780/CP70) xenografts in vivo” value in data set [9] is “little effect”. In [10], the MTD was 100 mg/kg.

For orientation: IC50 means the concentration needed to halve the response being measured.
